Reference: patent publication US11548913B2, “Therapeutic compositions including peptides and uses thereof” (Stealth BioTherapeutics Inc., priority 2015, dated 2023)
“Also recorded” adds a separate entry of the source. Square brackets hold non-standard residues; d marks the D form. Peptide text beside a SMILES is read from it. Dmt = Cc1cc(O)cc(C)c1C[C@H](N)C(=O)O; dOrn = NCCC[C@@H](N)C(=O)O

Tests used:
[1] = tested on: excised rat hearts; test: Modified Langendorff rat heart model, peptide pre-treatment before ischemia/reperfusion (Example 2); conditions: hearts bathed 2 hours in 1 μM peptide before 20 min ischemia and 2 hours reperfusion; vs SBT-46, SBT-102 and controls; anticipated
Description: The Langendorff rodent heart model is widely employed in studies of myocardial function and responses to injury (e.g., ischemia). For whole-heart studies, male Sprague-Dawley rats (7-9 weeks old) are injected with pentobarbital (35 mg/kg, ip injection) and hearts are excised with midline thoracotomy. The aortas are secured around a cannula of a modified Langendorff apparatus and retrogradely perfused (perfusion pressure of 75 mm Hg) with a modified Krebs-Henseleit buffer containing (in mM): 118 NaCl, 24 NaHCO3, 4.75 KCl, 1.2 KH2PO4, 1.2 MgSO4, 2.0 CaCl2, and 10 glucose (gassed with 95/5% O2/CO2). Hearts are bathed in a buffer-filled perfusion chamber maintained at 37° C. for the duration of the experiments. Following the initiation of perfusion, hearts are instrumented for the simultaneous observation of mechanical and electrical function. A buffer-filled latex balloon (size 5, Harvard Apparatus, Holliston, Mass., USA), which is calibrated at the beginning of each day using a digital manometer, is inserted into the left ventricle (via the mitral valve) for the measurement of left ventricular developed pressure (LVDP), with balloon volume adjusted to establish a diastolic pressure of 5-8 mm Hg. Three electrodes are placed into the buffer filled perfusion chamber for the measurement of the volume-conducted electrocardiogram (ECG). Coronary flow rates are monitored constantly with a flow probe (Transconic Systems, Ithaca, N.Y., USA) connected in series with the perfusion line, and normalized to heart wet weight (in grams) at the end of each experiment. All physiological parameters are continuously monitored and stored on a personal computer using commercially available software (Chart, AD Instruments, Colorado Springs, Colo., USA). Heart rate is calculated using the LVDP trace, and maximal rates of contraction(+dP/dt) and relaxation (−dP/dt) are calculated using the derivative of the LVDP trace.
Prior to the initiation of ischemia/reperfusion, the excised rat hearts are bathed in buffer containing an experimental peptide at a concentration of 1 μM or buffer alone (control) for two hours. The experimental peptide is selected from D-Arg-D-Dmt-D-Lys-L-Phe-NH2 (SBT-46), D-Arg-L-DMT-L-Ala-L-Phe-NH2 (SBT-68), (Ac)-D-Arg-L-DMT-L-Lys-L-Phe-NH2 (SBT-85), D-Arg-L-Dmt-L-His-L-Phe-NH2(SBT-100), D-Arg-L-DMT-L-Orn-L-Phe-NH2 (SBT-102), D-Orn-L-DMT-L-Lys-L-Phe-NH2(SBT-131), D-(Amidine)Arg(propylamine)-L-DMT-L-Lys-L-Phe-NH2(SBT-140), and D-Arg(butylamidine analog)-L-DMT-L-Lys-L-Phe-NH2 (SBT-149). Following a 10 minute baseline period, ischemia/reperfusion is initiated. Hearts are exposed to global no-flow ischemia by stopping perfusion for 20 min. At the end of the index ischemia, static buffer from the perfusion lines is washed out (via an accessory port proximal to the aortic cannula), and reperfusion ensues for 2 hours with Krebs buffer. At the end of reperfusion, the left ventricle is dissected, sliced into 5 mm-thick slices, incubated in 1% triphenyltetrazolium chloride (TTC) for 10 min (37° C.) and digitally photographed for subsequent infarct size analysis. Infarct size is expressed as a percentage of the left ventricle (% area at risk (AAR))(calculated using ImageJ software, NIH, Bethesda, Md., USA).

[2] = tested on: Excised Sprague-Dawley rat hearts; test: Modified Langendorff rat heart model, ischemia/reperfusion with peptide in the reperfusion buffer (Example 1); conditions: 1 μM peptide in Krebs buffer during 2 hours reperfusion after 20 min global no-flow ischemia; compared to controls
Description: The Langendorff rodent heart model is widely employed in studies of myocardial function and responses to injury (e.g., ischemia). For whole-heart studies, male Sprague-Dawley rats (7-9 weeks old) were injected with pentobarbital (35 mg/kg, ip injection) and hearts were excised with midline thoracotomy. The aortas were secured around a cannula of a modified Langendorff apparatus and retrogradely perfused (perfusion pressure of 75 mm Hg) with a modified Krebs-Henseleit buffer containing (in mM): 118 NaCl, 24 NaHCO3, 4.75 KCl, 1.2 KH2PO4, 1.2 MgSO4, 2.0 CaCl2, and 10 glucose (gassed with 95/5% O2/CO2). Hearts were bathed in a buffer-filled perfusion chamber maintained at 37° C. for the duration of the experiments. Following the initiation of perfusion, hearts were instrumented for the simultaneous observation of mechanical and electrical function. A buffer-filled latex balloon (size 5, Harvard Apparatus, Holliston, Mass., USA), calibrated at the beginning of each day using a digital manometer, was inserted into the left ventricle (via the mitral valve) for the measurement of left ventricular developed pressure (LVDP), with balloon volume adjusted to establish a diastolic pressure of 5-8 mm Hg. Three electrodes were placed into the buffer filled perfusion chamber for the measurement of the volume-conducted electrocardiogram (ECG). Coronary flow rates were monitored constantly with a flow probe (Transconic Systems, Ithaca, N.Y., USA) connected in series with the perfusion line, and normalized to heart wet weight (in grams) at the end of each experiment. All physiological parameters were continuously monitored and stored on a personal computer using commercially available software (Chart, AD Instruments, Colorado Springs, Colo., USA). Heart rate was calculated using the LVDP trace, and maximal rates of contraction(+dP/dt) and relaxation (−dP/dt) were calculated using the derivative of the LVDP trace.
Following a 10 minute baseline period, ischemia/reperfusion was initiated. Hearts were exposed to global no-flow ischemia by stopping perfusion for 20 min. At the end of the index ischemia, static buffer from the perfusion lines was washed out (via an accessory port proximal to the aortic cannula), and reperfusion ensued for 2 hours either with Krebs buffer alone (control) or Krebs buffer containing an experimental peptide at a concentration of 1 μM. Peptides tested included D-Arg-D-Dmt-D-Lys-L-Phe-NH2 (SBT-46), D-Arg-L-DMT-L-Ala-L-Phe-NH2 (SBT-68), (Ac)-D-Arg-L-DMT-L-Lys-L-Phe-NH2 (SBT-85), D-Arg-L-Dmt-L-His-L-Phe-NH2(SBT-100), D-Arg-L-DMT-L-Orn-L-Phe-NH2 (SBT-102), D-Orn-L-DMT-L-Lys-L-Phe-NH2(SBT-131), D-(Amidine)Arg(propylamine)-L-DMT-L-Lys-L-Phe-NH2 (SBT-140), and D-Arg(butylamidine analog)-L-DMT-L-Lys-L-Phe-NH2(SBT-149). At the end of reperfusion, the left ventricle was dissected, sliced into 5 mm-thick slices, incubated in 1% triphenyltetrazolium chloride (TTC) for 10 min (37° C.) and digitally photographed for subsequent infarct size analysis. Infarct size was expressed as a percentage of the left ventricle (% area at risk (AAR))(calculated using ImageJ software, NIH, Bethesda, Md., USA).

Compound | LVDP [1] | infarct size [1] | maximal rates of contraction (+dP/dt) [1] | maximal rates of relaxation (−dP/dt) [1] | attenuation of cardiac ischemia injury and ischemia-reperfusion injury [2] | infarct size expressed as a percentage of area at risk (AAR) [2] | left ventricular developed pressure (LVDP) [2] | maximal rates of contraction (+dP/dt) [2] | maximal rates of relaxation (−dP/dt) [2]
Cc1cc(O)cc(C)c1C[C@H](NC(=O)[C@H](N)CCCNC(=N)N)C(=O)N[C@@H](C)C(=O)N[C@@H](Cc1ccccc1)C(N)=O [SBT-68, D-Arg-L-DMT-L-Ala-L-Phe-NH2] (H-[dR][Dmt]AF-NH2) | increased LVDP | reduced infarct size | increased maximal rates of contraction | increased maximal rates of relaxation | able to attenuate cardiac ischemia injury and ischemia-reperfusion injury; also recorded: attenuation of cardiac ischemia-reperfusion injury | reduced infarct size | increased LVDP | increased maximal rates of contraction | increased maximal rates of relaxation
CC(=O)N[C@H](CCCNC(=N)N)C(=O)N[C@@H](Cc1c(C)cc(O)cc1C)C(=O)N[C@@H](CCCCN)C(=O)N[C@@H](Cc1ccccc1)C(N)=O [SBT-85, (Ac)-D-Arg-L-DMT-L-Lys-L-Phe-NH2] (Ac-[dR][Dmt]KF-NH2) | increased LVDP | reduced infarct size | increased maximal rates of contraction | increased maximal rates of relaxation | able to attenuate cardiac ischemia injury and ischemia-reperfusion injury; also recorded: attenuation of cardiac ischemia-reperfusion injury | reduced infarct size | increased LVDP | increased maximal rates of contraction | increased maximal rates of relaxation
Cc1cc(O)cc(C)c1C[C@H](NC(=O)[C@H](N)CCCNC(=N)N)C(=O)N[C@@H](Cc1cnc[nH]1)C(=O)N[C@@H](Cc1ccccc1)C(N)=O [SBT-100, D-Arg-L-Dmt-L-His-L-Phe-NH2] (H-[dR][Dmt]HF-NH2) | increased LVDP | reduced infarct size | increased maximal rates of contraction | increased maximal rates of relaxation | able to attenuate cardiac ischemia injury and ischemia-reperfusion injury; also recorded: attenuation of cardiac ischemia-reperfusion injury | reduced infarct size | increased LVDP | increased maximal rates of contraction | increased maximal rates of relaxation
Cc1cc(O)cc(C)c1C[C@H](NC(=O)[C@H](N)CCCN)C(=O)N[C@@H](CCCCN)C(=O)N[C@@H](Cc1ccccc1)C(N)=O [SBT-131, D-Orn-L-DMT-L-Lys-L-Phe-NH2] (H-[dOrn][Dmt]KF-NH2) | increased LVDP | reduced infarct size | increased maximal rates of contraction | increased maximal rates of relaxation | able to attenuate cardiac ischemia injury and ischemia-reperfusion injury; also recorded: attenuation of cardiac ischemia-reperfusion injury | reduced infarct size | increased LVDP | increased maximal rates of contraction | increased maximal rates of relaxation
Cc1cc(O)cc(C)c1C[C@H](NC(=O)[C@@H](CCCN)NC(=N)N)C(=O)N[C@@H](CCCCN)C(=O)N[C@@H](Cc1ccccc1)C(N)=O [SBT-140, D-(Amidine)Arg(propylamine)-L-DMT-L-Lys-L-Phe-NH2] | increased LVDP | reduced infarct size | increased maximal rates of contraction | increased maximal rates of relaxation | able to attenuate cardiac ischemia injury and ischemia-reperfusion injury; also recorded: attenuation of cardiac ischemia-reperfusion injury | reduced infarct size | increased LVDP | increased maximal rates of contraction | increased maximal rates of relaxation
D-Arg-D-Dmt-D-Lys-L-Phe-NH2 [SBT-46] |  |  |  |  | does not attenuate cardiac ischemia-reperfusion injury | did not reduce infarct size | did not reduce infarct size, increase LVDP | did not reduce infarct size, increase LVDP, or increase the maximal rates of contraction and relaxation | did not reduce infarct size, increase LVDP, or increase the maximal rates of contraction and relaxation
D-Arg-L-Dmt-L-Orn-L-Phe-NH2 [SBT-102] |  |  |  |  | does not attenuate cardiac ischemia-reperfusion injury | did not reduce infarct size | did not reduce infarct size, increase LVDP | did not reduce infarct size, increase LVDP, or increase the maximal rates of contraction and relaxation | did not reduce infarct size, increase LVDP, or increase the maximal rates of contraction and relaxation
